Results: paper PMC6167110, “NgcE^Sco Acts as a Lower-Affinity Binding Protein of an ABC Transporter for the Uptake of N,N′-Diacetylchitobiose in Streptomyces coelicolor A3(2)” (Microbes and Environments, 2018)
Each block holds one molecule with its values, some of them ahead of it.

Legend:
NgcE^Sco (SCO6005) [1] = molecular target: T1, NgcE^Sco (SCO6005) (Streptomyces coelicolor, UniProt O50499); assay: isothermal titration calorimetry; assay type: binding; settings: 20 mM Tris/HCl pH 8.0, 30°C; single-site fit
T1 construct: without putative signal peptide (29 N-terminal residues); from E. coli
T1 sequence (O50499 30-469): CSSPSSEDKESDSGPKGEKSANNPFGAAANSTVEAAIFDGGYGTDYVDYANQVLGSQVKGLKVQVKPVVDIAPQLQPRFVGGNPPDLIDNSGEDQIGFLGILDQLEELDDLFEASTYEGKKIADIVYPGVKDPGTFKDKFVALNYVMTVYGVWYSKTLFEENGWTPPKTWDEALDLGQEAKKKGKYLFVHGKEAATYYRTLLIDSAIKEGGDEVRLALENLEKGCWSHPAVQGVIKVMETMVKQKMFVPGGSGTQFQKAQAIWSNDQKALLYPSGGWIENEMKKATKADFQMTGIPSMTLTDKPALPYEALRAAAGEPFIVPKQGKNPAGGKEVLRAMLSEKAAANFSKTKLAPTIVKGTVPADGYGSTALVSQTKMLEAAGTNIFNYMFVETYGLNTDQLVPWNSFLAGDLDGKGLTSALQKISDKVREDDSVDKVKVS
Source text: isothermal titration calorimetry on NgcE^Sco (SCO6005)

NgcE^Sco (SCO6005) [2] = molecular target: T1, NgcE^Sco (SCO6005); assay: intrinsic protein fluorescence titration; assay type: binding
DasR (DasR-6His) = molecular target: T2, DasR (DasR-6His) (Streptomyces coelicolor, UniProt Q9K492); assay: EMSA, inhibition of DasR binding to dre^ngcE DNA; settings: Cy5-labeled dre^ngcE DNA probe; allosteric
T2 construct: DasR-6His from pFT240, expressed in E. coli BL21(DE3), Ni-agarose purified

[3] = molecular target: T3, NgcE of S. olivaceoviridis (Streptomyces olivaceoviridis, UniProt Q8RJV0); assay: intrinsic protein fluorescence titration; assay type: binding; settings: fluorescence increase
T3 construct: N-terminally His-tagged, from E. coli carrying pQEH301
T3 sequence (Q8RJV0 47-489): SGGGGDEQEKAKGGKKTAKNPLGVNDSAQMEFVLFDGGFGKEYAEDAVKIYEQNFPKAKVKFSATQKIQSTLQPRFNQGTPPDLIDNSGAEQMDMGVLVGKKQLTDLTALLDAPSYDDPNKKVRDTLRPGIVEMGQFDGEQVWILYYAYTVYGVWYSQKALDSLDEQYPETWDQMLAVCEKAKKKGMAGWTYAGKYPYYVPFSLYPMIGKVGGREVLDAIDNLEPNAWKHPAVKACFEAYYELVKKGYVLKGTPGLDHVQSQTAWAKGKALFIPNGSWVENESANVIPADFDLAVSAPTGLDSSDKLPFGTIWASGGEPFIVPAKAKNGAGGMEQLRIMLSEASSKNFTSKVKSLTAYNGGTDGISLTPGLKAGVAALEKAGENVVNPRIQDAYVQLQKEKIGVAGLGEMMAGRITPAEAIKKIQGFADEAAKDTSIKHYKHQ

DasR-6His = molecular target: T4, DasR-6His (Streptomyces coelicolor A3(2), UniProt Q9K492 1-254); assay: EMSA; EMSA: Cy5 probe ~0.1 mM and DasR-6His ~1 mM (so in the source); probably uM) in 50 uL, 1% agarose gel; buffer, salt, pH and temperature not given; settings: protein: recombinant; tags: C-terminal 6xHis; chain copies: 2; label: Cy5 on the printed strand; blunt
T4 sequence: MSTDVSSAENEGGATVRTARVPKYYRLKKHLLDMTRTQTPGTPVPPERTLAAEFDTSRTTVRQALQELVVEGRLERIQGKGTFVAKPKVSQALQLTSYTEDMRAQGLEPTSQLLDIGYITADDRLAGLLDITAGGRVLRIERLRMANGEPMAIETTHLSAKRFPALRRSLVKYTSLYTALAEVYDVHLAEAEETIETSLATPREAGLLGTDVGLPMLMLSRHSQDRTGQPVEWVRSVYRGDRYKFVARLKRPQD

- Kd (NgcE^Sco (SCO6005) [1]): 1530 nM
Molecule: CC(=O)N[C@H]1[C@H](O[C@H]2[C@H](O)[C@@H](NC(C)=O)C(O)O[C@@H]2CO)O[C@H](CO)[C@@H](O)[C@@H]1O (stereo partly shown) [(GlcNAc)2]

- Kd (NgcE^Sco (SCO6005) [2]): 12000 nM
Molecule: CC(=O)N[C@H]1C(O)O[C@H](CO)[C@H](O)[C@@H]1O (stereo partly shown) [GalNAc]

Molecule: N[C@H]1C(O)O[C@H](COP(=O)(O)O)[C@@H](O)[C@@H]1O (stereo partly shown) [GlcN-6P]
- EMSA, inhibition of DasR binding to dre^ngcE DNA (DasR (DasR-6His)): binding of DasR to the dre^ngcE-containing probe was inhibited by GlcNAc-6P and GlcN-6P

Molecule: CC(=O)N[C@H]1C(O)O[C@H](COP(=O)(O)O)[C@@H](O)[C@@H]1O (stereo partly shown) [GlcNAc-6P]
- EMSA, inhibition of DasR binding to dre^ngcE DNA (DasR (DasR-6His)): binding of DasR to the dre^ngcE-containing probe was inhibited by GlcNAc-6P and GlcN-6P

- Kd (NgcE^Sco (SCO6005) [1]): 1150 nM
- Kd [3]: 85 nM
Molecule: CC(=O)N[C@H]1C(O)O[C@H](CO)[C@@H](O)[C@@H]1O (stereo partly shown) [GlcNAc]

- Kd (NgcE^Sco (SCO6005) [2]): 25000 nM
Molecule: CC(=O)N[C@H]1C(O)O[C@H](CO)[C@@H](O)[C@@H]1O[C@H](C)C(=O)O (stereo partly shown) [MurNAc]

B1: dredasA (dsDNA)
DNA 1: CAAGCTCCCCGTACTGGTCTACACCATTGGTCCAGGTCCC
DNA 2: GGGACCTGGACCAATGGTGTAGACCAGTACGGGGAGCTTG
- binding result (DasR-6His): binds

B2: drengcE (dsDNA)
DNA 1: CCGCCAAGCGAAAGTGGACTATACCTGTCGGCACTCCGGG
DNA 2: CCCGGAGTGCCGACAGGTATAGTCCACTTTCGCTTGGCGG
- binding result (DasR-6His): binds

B3: drenagKA (dsDNA)
DNA 1: CGTACACCCGGGAGAGGTCTAGTCCACTGCGGTGGTGTAG
DNA 2: CTACACCACCGCAGTGGACTAGACCTCTCCCGGGTGTACG
- binding result (DasR-6His): binds
